Laboratory results published in patent US20260055141A1, “COMPOSITIONS AND METHODS FOR CONTROLLING FOOD INTAKE, ENERGY EXPENDITURE, AND BODY WEIGHT FOR THE TREATMENT OF OBESITY AND METABOLIC DISEASES” (The Trustees of the University of Pennsylvania, priority 2022, published 2026).
Non-standard residues stand in square brackets, D forms with d. No end group written: not given here.

Assays:
[1] = Lateral intraventricular injection in HEPES buffer, food intake and body weight in DIO rats; format: in vivo, rat; conditions: lateral ventricle; for food intake compared to control: 60% HFD, 1, 3, 6, 24 h
Procedure: Diet induced obese (DIO) rats (n=4) were administered 150 μg/3 μL SU75-36 in a vehicle or in a HEPES buffer by lateral intraventricular injection and observed over 24 hours. One group of rats was administered a Vehicle of 50% DMSO in HEPES as a negative control. All rats were given ad libitum access to water and 60% HFD. […] (FIG. 10A). […] Rats were weighed at the beginning of the experiment and 24 hours after administration. The weight change of each rat after 24 hours was then calculated. […] (FIG. 10B). In a separate experiment, diet induced obese (DIO) rats (n=4) were administered 133 μg/2 μL SU75-37 in a HEPES buffer by lateral intraventricular injection and observed over 24 hours. One group of rats was administered a vehicle without a GPR75 inhibitor as a negative control. All rats were given ad libitum access to water and a 60% high fat diet (HFD). SU75-37 was optimized using an acetate salt precipitation rather than a TFA salt precipitation to maintain a neutral >4.5 pH in HEPES buffer solution. The food intake of each rat was observed 1, 3, 6, and 24 hours after administration. […] Rats were weighed at the beginning of the experiment and 24 hours after administration. The weight change of each rat after 24 hours was then calculated. […] (FIG. 11B).

[2] = Circular dichroism (CD) spectroscopy, secondary structure; conditions: 40 μM in 0.5% saline
[3] = 4th ventricle intracerebroventricular injection, food intake and body weight in DIO rats; format: in vivo, rat; conditions: for food intake compared to control: SU75-36 20, 100 or 200 μg, SU75-37 20 μg, 60% HFD, 1, 3, 6, 24 h
Procedure: Adult male Sprague-Dawley rats (Charles River) were individually housed under a 12 h-light: 12 h-dark cycle in a temperature and humidity-controlled satellite vivarium and had ad libitum access to water and chow (5001, LabDiet) or a 60% high fat diet (HFD): D12492, Research Diets) and when applicable had ad libitum access to kaolin pellets (K50001, Research Diets). Rats were exposed to kaolin for at least 5 days prior to measuring kaolin consumption in pica testing. Except for studies conducted in the bioDAQ, for all feeding studies rats were housed in hanging wire cages to allow for accurate measurement of food spillage. Experiments were conducted under the National Institutes for Health Guide for the Care and Use of Laboratory Animals and all procedures were approved by the Institutional Animal Care and Use Committee at the University of Pennsylvania.
For cannula implantation, rats were anesthetized by intraperitoneal injection of a mixture containing ketamine (90 mg/kg, Butler Animal Health Supply), xylazine (2.7 mg/kg, Anased), and acepromazine (0.64 mg/kg, Butler Animal Health Supply) (KAX) and then placed into a stereotaxic apparatus. Each rat was stereotaxically implanted with a guide cannula (26-ga, Plastics One) aimed at the fourth ventricle (guide cannula coordinates: on midline. 2.5 mm anterior to occipital suture, 5.2 mm ventral to skull; internal cannula aimed 7.2 mm ventral to skull) or the lateral ventricle (guide cannula coordinates: 1.5 mm lateral to midline, 0.9 mm posterior to bregma. 1.8 mm ventral to skull; internal cannula aimed 3.8 mm ventral to skull). For all cannulas, dummies (no projection beyond guide) were inserted in the guide cannula and left until infusions were performed. For all surgeries, rats received post-operative temperature support and analgesia was provided immediately following surgery and for two post-operative days (2 mg/kg meloxicam).
For all studies measuring food intake following drug treatment, central injections were given at a volume of 2 μL using a Hamilton syringe terminating in an injector tip extending 2.0 mm beyond the guide cannula. For acute treatment days, rats were food deprived for 2 hours before the dark cycle and injections were done immediately prior to the dark cycle onset. Food and kaolin intake was measured 1, 3, 6, and 24 hours after injections were completed and food crumbs were weighed and accounted for between each timepoint. Body weight was measured during injections and 24 hours after. Injection treatments were organized in a counterbalanced, within-subjects design and separated by ≥72 h. […]
Rats were weighed at the beginning of the experiment and 24 hours after administration of the GPR75 inhibitor. The weight change of each rat after 24 hours was then calculated. […]

Substance	food intake compared to any of the other groups ([1]; 150 μg/3 μL in HEPES buffer, DIO rats)	food intake compared to control ([1]; 150 μg/3 μL in vehicle (50% DMSO in HEPES) or HEPES buffer, DIO rats)	food intake compared to control ([1]; 150 μg/3 μL in vehicle (50% DMSO in HEPES) or HEPES buffer, DIO rats, listed as 36)	body weight change after 24 hours compared to any other of the groups ([1]; 150 μg/3 μL with HEPES buffer, DIO rats)	body weight change after 24 hours ([1]; 150 μg/3 μL, DIO rats)	secondary structure (folded state) from CD spectra [2]	food intake compared to any of the other groups ([3]; 200 μg, 60% HFD)	food intake compared to control [3]	body weight change after 24 hours ([3]; any amount (20, 100, 200 μg), 60% HFD)	food intake compared to control ([1]; 133 μg/2 μL in HEPES buffer, acetate salt precipitation, DIO rats)	body weight change after 24 hours ([1]; 133 μg/2 μL in HEPES buffer, DIO rats)	24 h food intake ([1]; 150 μg/3 μL in HEPES buffer, male HFD fed rats (FIG. 11 legend))
H[dS]QGTFTSDLSKYLEEEVREFIWLKNGGPSDVNTDRPGLLDLK-NH2 [SU75-36]	further decrease	significant decrease in food intake	suppresses	further decrease	significant decrease in weight	typical α-helix	further decrease	significant decrease in food intake	significant decrease in weight			
TFTSDLSKYLEEEVREFIWLKNGGPSDVNTDRPGLLDLK-NH2 [SU75-37]						typical α-helix		significant decrease in food intake		significant decrease in food intake	significant decrease in weight	suppresses
